Key:
[1] = biological target: GTPase KRas (Homo sapiens, UniProt P01116, C118A/G12C); test: Inhibition of recombinant His-tagged GDP-bound human KRAS G12C/C118A mutant (1 to 169 residues) (unknown origin) extracted by Escherichia coli assessed as SOS1-catalyzed GDP-GTP exchange preincubated for 2 hrs followed by SOS1 and GTP addition for 30 mins and measured after 45 mins of GST-tagged c-RAF addition by luminescence based Alphascreen assay
[2] = Inhibition of ERK1/2 phosphorylation in human MIA PaCa-2 cells incubated for 2 hrs by MSD assay; assay type: cell-based; details: MIA PaCa-2, 2 h
[3] = Unbound AUC in mouse at 5 mg/kg, po; assay type: ADME, organism-based; details: in vivo
[4] = test system: MIA PaCa-2; test: Antiproliferative activity against human MIA PaCa-2 cells assessed as reduction in cell viability incubated for 72 hrs by Cell Titer-Glo reagent based luminescent cell viability assay; assay type: functional; details: MIA PaCa-2, 72 h
[5] = Oral bioavailability in mouse; assay type: ADME, organism-based; details: in vivo
[6] = Unbound AUC in mouse at 100 mg/kg, po; assay type: ADME, organism-based; details: in vivo
[7] = animal or person; details: Mus musculus, MIA PaCa-2, po, 2 h, read-out: INH
[8] = Clearance in mouse; assay type: ADME, organism-based; details: in vivo

Structure (SMILES)	IC50 [1]	IC50 [2]	fAUC [3]	IC50 [4]	bioavailability [5]	fAUC [6]	inhibition in vivo at 100 mg/kg [7]	clearance [8]
C=CC(=O)N1CC2(CCN(c3nc4c(c(-c5cc(O)cc6ccccc56)c3C#N)C[C@H]3C[C@@H]4C3(C)C)C2)C1	0.019 µM	0.04 µM	1 nM·h	0.021 µM	4%	–	–	–
C=CC(=O)N1CC2(CCN(c3nc4c(c(-c5cc(O)cc6ccccc56)c3C#N)COC(C)(C)C4)C2)C1	0.022 µM	0.101 µM	13 nM·h	0.143 µM	34%	–	–	–
C=CC(=O)N1CC2(CCN(c3nc(N[C@H](CC(=O)NC)CC(C)C)nc(-c4cccc(OC)c4F)n3)C2)C1	0.61 µM	1.23 µM	–	0.72 µM	–	–	–	–
C=CC(=O)N1CC2(CCN(c3nc4c(c(-c5cc(O)cc6ccccc56)c3Cl)COC(C)(C)C4)C2)C1	–	–	42 nM·h	–	50%	150 nM·h	–	–
C=CC(=O)N1CC2(CCN(c3nc4c(c(-c5cc(O)cc6ccccc56)c3F)COC(C)(C)C4)C2)C1	0.062 µM	0.217 µM	27 nM·h	0.119 µM	27%	360 nM·h	–	–
C=CC(=O)N1CC2(CCN(c3nc4c(c(-c5c(C)ccc6[nH]ncc56)c3C#N)C[C@H]3C[C@@H]4C3(C)C)C2)C1	0.019 µM	0.01 µM	–	0.011 µM	–	–	–	–
C=CC(=O)N1CC2(CCN(c3nc4c(c(-c5c(C)ccc6[nH]ncc56)c3C#N)CCC(C)(C)C4)C2)C1 (atropisomer P)	–	0.067 µM	–	0.042 µM	–	–	–	–
C=CC(=O)N1CC2(CCN(c3nc4c(c(N[C@H](CC(=O)NC)CC(C)C)n3)CCCC4)C2)C1	–	1.59 µM	–	0.89 µM	–	–	–	–
C=CC(=O)N1CC2(CCN(c3nc(N[C@H](CC(=O)NC)CC(C)C)c4ccccc4n3)C2)C1	–	6.17 µM	–	1.29 µM	–	–	–	–
C=CC(=O)N1CC2(CCN(c3nc4c(c(-c5c(C)ccc6[nH]ncc56)n3)CCC(C)(C)C4)C2)C1	0.84 µM	6.39 µM	–	3.35 µM	–	–	–	–
C=CC(=O)N1CC2(CCN(c3nc4c(c(-c5cc(O)cc6ccccc56)c3F)C[C@H]3C[C@@H]4C3(C)C)C2)C1	–	–	21 nM·h	–	14%	1010 nM·h	55%	–
C=CC(=O)N1CC2(CCN(c3nc(N[C@H](CC(=O)NC)CC(C)C)nc(-c4cccc(OC)c4Cl)n3)CC2)C1	1.75 µM	8.84 µM	–	–	–	–	–	–
C=CC(=O)N1CC2(CCN(c3nc(N[C@H](CC(=O)NC)CC(C)C)nc(-c4cc(F)ccc4OC)n3)CC2(F)F)C1	0.3 µM	0.95 µM	–	0.72 µM	–	–	–	–
C=CC(=O)N1CC2(CCN(c3nc(N[C@H](CC(=O)NC)CC(C)C)nc(-c4cccc(OC)c4OC)n3)C(C)C2)C1 (stereo not given in full)	3.2 µM	6.01 µM	–	–	–	–	–	–
C=CC(=O)N1CC2(CCN(c3nc4c(c(-c5cccc6sc(N)nc56)n3)CCCC4)C2)C1	0.89 µM	8.13 µM	–	> 5 µM	–	–	–	–
C=CC(=O)N1CC2(CCN(c3nc4c(c(-c5cc(O)cc6ccccc56)n3)CCCC4)C2)C1	0.69 µM	8.48 µM	–	> 5 µM	–	–	–	–
C=CC(=O)N1CC2(CCN(c3nc4c(c(-c5c(C)ccc6[nH]ncc56)n3)CCCC4)C2)C1	3.83 µM	8.24 µM	–	> 5 µM	–	–	–	–
C=CC(=O)N1CC2(CCN(c3nc4c(c(-c5c(C)ccc6[nH]ncc56)c3C#N)COC(C)(C)C4)C2)C1	0.064 µM	0.158 µM	3 nM·h	0.096 µM	3%	–	–	5.4 L/h/kg
C=CC(=O)N1CC2(CCN(c3nc4c(c(-c5cc(O)cc6ccccc56)c3C)COC(C)(C)C4)C2)C1	–	0.1 µM	18 nM·h	0.032 µM	44%	137 nM·h	–	–
